The METLIN SMRT retention time set (Domingo-Almenara et al. 2019)

Experiment: gradient 5% acetonitrile 3 min, to 50% in 2 min, to 85% in 15 min, held 3 min, 100 µL/min
Settings: column: Zorbax Extend-C18 2.1 x 50 mm; eluents: water / acetonitrile, 0.1% formic acid
Procedure, shortened: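 Data were gathered over 3 months by HPLC coupled to a quadrupole time-of-flight mass spectrometer, operated in positive and negative ionization mode. Mixtures of ~100 pure standards ran on a Zorbax Extend-C18 column (2.1 × 50 mm, 1.8 μm) at 100 μL/min, with water and acetonitrile each containing 0.1% formic acid and dead and dwell volumes of 40 μL and 900 μL. Retention time was read from adduct peaks picked by computer and checked manually.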

| SMILES | RP-LC retention time [s] |
| --- | --- |
| CCC1(C(=O)OC)CCc2c(cc(OC)c3ccccc23)C1=O (stereo not drawn) | 1250 |
| Cc1ccc(-n2c(=O)c3sccc3n(Cc3nc(-c4ccc(F)cc4)no3)c2=O)cc1 | 1030 |
| CN(C)C(=O)CN1C(=O)COc2ccc(C(=O)N3CCN(c4ccc(F)cc4)CC3)cc21 | 715 |
| NC(=O)CS(=O)C(c1ccccc1)c1ccccc1 (stereo not drawn) | 710 |
| CCC(C(=O)NCCCN1CCCC1)n1nc(C)c2sc3ccccc3c2c1=O (stereo not drawn) | 669 |
| Cc1nc(-c2noc(-c3ccc(F)cc3)n2)cn1CC(=O)Nc1ccc2c(c1)CCC2 | 966 |
| CCNC(=O)Nc1ccc2c(c1)CN(S(=O)(=O)C(C)C)CCO2 | 676 |
| Cc1ccc2nsnc2c1NC(=O)Cn1c(-c2cncs2)nc2ccccc21 | 682 |
| COc1ccc(C(=O)NCc2ccc3c(c2)ncn3C(C)C)cc1F | 632 |
| CS(=O)(=O)Nc1ccc2oc3c(OC(F)F)ccc(C(=O)Nc4c(Cl)cncc4Cl)c3c2c1 | 967 |
| Cc1cc2[nH]c(C(=O)Nc3cc(F)cc(F)c3)c(CN3CCOCC3)c2s1 | 738 |
| Cn1nc(CN(C(=O)c2ccccc2F)c2ccccc2)c2c1CCN(S(C)(=O)=O)C2 | 779 |
| Cc1ccc(NC(=O)C2CCCN(c3ccc4cc(S(=O)(=O)N5CCCCC5)ccc4n3)C2)cc1 (stereo not drawn) | 917 |
| CCCNC(=O)C1CCCN(c2ccc(SCC(=O)Nc3c(C)cccc3CC)nn2)C1 (stereo not drawn) | 650 |
| CC(Oc1ccccc1Cl)C(=O)NCCn1nc(-n2cccn2)ccc1=O (stereo not drawn) | 710 |
| Fc1cccc(-c2noc(-c3ccc(N4CCN(Cc5ccc6c(c5)OCO6)CC4)nc3)n2)c1 | 834 |
| O=C1C(Br)=Cc2cccc3cccc1c23 | 996 |
| CN(C)[C@@H]1CN(C(=O)c2ccc(Cn3cncn3)o2)CC[C@@H]1CO | 518 |
| CC(C)CNC(=O)c1ccc(-c2nnc3ccc(NC(=O)C4CC4)cn23)cc1 | 708 |
| CCOc1cccc(C2CC(=O)NC3=C2C(=O)C(C(=O)OC)C(C)C3)c1 (stereo not drawn) | 750 |
| CCc1nnc2ccc(-c3noc(-c4cc(F)ccc4F)n3)cn12 | 896 |
| Cc1ccc(S(=O)(=O)N2CCN(c3cc(C)nc(NC4CCCCC4)n3)CC2)cc1 | 811 |

| SMILES | RP-LC retention time [s] |
| --- | --- |
| Cn1cc(-c2ccncc2)cc1C(=O)NCc1ccc(Cl)cc1 | 646 |
| CC1CCCCN1CCCNC(=O)Cn1c2ccccc2c2cnn(C)c(=O)c21 (stereo not drawn) | 600 |
| CN(CC1CCOCC1)C(=O)c1cc(F)cc(F)c1 | 725 |
| COc1ccc(OC)c(-c2ccc(=O)n(CCc3nc(-c4ccc(C)cc4)no3)n2)c1 | 1020 |
| Cc1ccc(-n2nc3c(N4CCCC(C(=O)NCc5ccc(Cl)cc5)C4)nnc(C)c3c2C)cc1 (stereo not drawn) | 789 |
| Cc1cccc(OCC(=O)N(Cc2ccc(Br)o2)C2CCS(=O)(=O)C2)c1C (stereo not drawn) | 960 |
| O=C(Nc1ccc(Nc2ccncc2)cc1)c1ccc(Nc2ccnc3ccc([N+](=O)[O-])cc23)cc1[N+](=O)[O-] | 651 |
| O=C(NC1CCCCC1)C1CCN(c2cn[nH]c(=O)c2)C1 (stereo not drawn) | 614 |
| CC(CNC(=O)c1cc2c(s1)CN(C1CC1)C2)c1ccccc1 (stereo not drawn) | 731 |
| O=C(Nc1ccccc1Cl)N(CCc1ccccc1)Cc1ccccn1 | 852 |
| CCCc1cc(NCc2ccccn2)n2ncc(-c3ccccc3)c2n1 | 894 |
| O=C([C@@H]1C[C@H](F)CN1C(=O)Nc1cccc(C(F)(F)F)c1)N1CCOCC1 | 698 |
| O=C(C1CC(=O)N(c2n[nH]c3ccccc23)C1)N1CCN(c2ccc(Cl)cc2)CC1 (stereo not drawn) | 799 |
| CCc1nc(OCC(=O)Nc2ccccc2C(=O)OC)c2ccccc2n1 | 902 |
| CCOC(=O)c1oc2ccccc2c1NC(=O)C1CCCN1S(C)(=O)=O (stereo not drawn) | 796 |
| Cc1cc(C)nc(Nc2nc(CC(=O)Nc3nc(C)c(C(=O)N(C)C)s3)cs2)n1 | 646 |
| COc1cc(CCC(=O)N2CCNc3ccccc3C2)cc(OC)c1OC | 710 |
| Cc1ccc(N2CCC(NC(=O)c3ccccc3)C2=O)cc1C (stereo not drawn) | 862 |
| Cc1ccc(CN2CCC(CNC(=O)Cn3ccc4c(=O)n(C)c(=O)n(C)c43)CC2)cc1 | 601 |
| O=C(NCc1cccnc1)C1CCN(Cc2cc3ccccc3n2Cc2cccc(F)c2)CC1 | 608 |
| Cc1ccc(-c2nc(-c3ccc4c(c3)oc(=O)n4C(C)C)no2)cc1 | 1280 |
| N#Cc1cccc(NC(=O)C2CCN(S(=O)(=O)c3ccc4c(c3)NC(=O)CO4)CC2)c1 | 763 |

| SMILES | RP-LC retention time [s] |
| --- | --- |
| O=C(N[C@@H]1CN(Cc2cc(Cl)ccc2F)C[C@H]1CO)C1CCC1 | 610 |
| COc1cccc(CNC(=O)CCc2nnc3c4cc(-c5ccccc5)nn4ccn23)c1 | 752 |
| CCCNC(=O)c1ccc2cnn(C)c2c1 | 673 |
| O=C(NCc1ccncc1)C1CCN(c2ncnc3c2oc2ccccc23)CC1 | 593 |
| Cc1cc2[nH]c(C(=O)Nc3cc(F)c(F)cc3F)c(CN3CCOCC3)c2s1 | 737 |
| CCC(C)NC(=O)CCc1ccc2nc(-c3ccccc3)[nH]c2c1 (stereo not drawn) | 621 |
| COc1ccc(Cl)cc1NC(=O)NCCn1c(-c2ccncc2)nc2cccnc21 | 659 |
| CCc1nc(-c2csc(S(=O)(=O)N3CCC(C(=O)NCc4ccc(F)cc4)CC3)c2)no1 | 935 |
| CC(C)(C)C(=O)N1CCCC(c2ccnc(-c3cccc(F)c3)n2)C1 (stereo not drawn) | 1130 |
| CCN1CCN(CCCNc2ccc(-c3nc(-c4cccc(F)c4)no3)cn2)CC1 | 634 |
| O=C(NCc1ccccc1)C1CCN(C(=O)C2Sc3ccccc3NC2=O)CC1 (stereo not drawn) | 741 |
| O=C(CCSc1ccccc1)N1CCN(c2ccc3nnc(C4CC4)n3n2)CC1 | 684 |
| Cc1ccc(CNC(=O)N2CCCC2c2nc(-c3ccccc3)no2)cc1 (stereo not drawn) | 994 |
| COc1cccc(N2CCN(c3cc(SCC(=O)NCC4CCCO4)ncn3)CC2)c1 (stereo not drawn) | 769 |
| CCCNC(=O)c1cc(C)nc2ccc(Br)cc12 | 718 |
| Cc1ccc(NC(=O)c2c(C)oc3nc(C)nc(N4CCOCC4)c23)c(C)c1 | 849 |
| CCCNC(=O)c1cc(N2CCCC2)n2nccc2n1 | 792 |
| CC(C)NC(=O)c1cn2c(n1)CCCC2 | 545 |
| c1ccc(CCc2nc(-c3ccnc(N4CCOCC4)c3)no2)cc1 | 919 |
| COc1cccc(CC(=O)Nc2ccc3c(c2)Sc2ncccc2C(=O)N3C)c1 | 762 |
| COC(=O)C1=C(C(=O)OC)SC2(S1)C(C(=O)OC)=C(C(=O)OC)Sc1c2ssc1=O | 977 |
| CCCCc1ccc(NC(=O)Cn2cnc3nc(N4CCCC(C(=O)NC)C4)sc3c2=O)cc1 (stereo not drawn) | 759 |

| SMILES | RP-LC retention time [s] |
| --- | --- |
| CCCNC(=O)C1CCCN(c2ccc(SCC(=O)NCc3ccc(OC)cc3)nn2)C1 (stereo not drawn) | 595 |
| CCOc1ccc(-c2ccc(=O)n(Cc3nc(-c4ccc(F)cc4)no3)n2)cc1 | 1090 |
| Cc1nnc(C2CCCCCN2C(=O)c2ccoc2C)o1 (stereo not drawn) | 699 |
| COc1ccc(OC)c(CNS(=O)(=O)c2cc(-c3nc(C)c(C)s3)sc2C)c1 | 1030 |
| CN(C)c1ccc(CNC(=O)CN2C(=O)CCc3cc(Br)ccc32)cc1 | 651 |
| O=C(Nc1ccc(Br)cc1)C1CCCN(c2ccnc(-c3ccc(F)cc3)n2)C1 (stereo not drawn) | 775 |
| c1ccc(-c2nc3nccc(-c4ccccn4)n3n2)cc1 | 820 |
| COc1cc2c(cc1OC)C1C(C(=O)NCCCN3CCN(C)CC3)c3ccccc3C(=O)N1CC2 (stereo not drawn) | 547 |
| CCc1ccccc1NC(=O)Cc1csc2nc(-c3ccc(C)c(C)c3)cn12 | 928 |
| CCOC(=O)c1c(S(=O)(=O)N2CCC(C(=O)Nc3ccc(C)c(C)c3)CC2)c(C)n(C)c1C | 841 |
| CCOc1ccc(N2CC(c3nc(-c4cccc(C)c4)no3)CC2=O)cc1 (stereo not drawn) | 1050 |
| COCc1nc(C2CCN(C(=O)C3(c4ccccc4)CC3)C2)no1 (stereo not drawn) | 750 |
| COc1ccc(C(=O)CSc2nc(CC(=O)NCc3cccnc3)cs2)cc1 | 589 |
| CCN1C(=O)c2cccc3c(NC(=O)c4cccs4)ccc1c23 | 731 |
| CCCCOc1ccc(-c2cc3c4nnc(CCC(=O)NCc5ccc(F)cc5)n4ccn3n2)cc1 | 952 |
| CCc1ccc(S(=O)(=O)N2CCC(c3noc(-c4ccccc4C)n3)CC2)cc1 | 1150 |
| CC(C)Cn1cc(CCNC(=O)Nc2ccc(Br)cc2F)c2cccnc21 | 975 |
| CCS(=O)(=O)c1ccc2c(c1)N(Cc1nc(-c3ccc(OC(F)(F)F)cc3)no1)C(=O)CO2 | 1030 |
| CCCCc1nc(SCC(=O)Nc2nc(-c3ccc(Br)cc3)cs2)n[nH]1 | 1050 |
| Cc1cc(NS(=O)(=O)c2ccc(Nc3nc(-c4ccc(C(C)C)cc4)cs3)cc2)no1 | 1160 |
| CCCn1cc(C(=O)N2CCCc3ccccc32)c2nn(-c3ccccc3)c(=O)c-2c1 | 836 |
| CC(C)Cc1cc(-c2nnc3sc(COc4ccccc4Cl)nn23)n[nH]1 | 941 |
